The text below walks through data of patent US6417235B2, “Method and use of α-amino-β-mercapto-ethane derivatives as dicarbonyl scavengers for treatment of conditions resulting from protein, lipid, and DNA damage” (University of Kentucky Research Foundation, priority 2000, dated 2002).

One test concerns ΦX-174 DNA. Briefly: AGE-BSA photosensitized cleavage of ΦX-174 DNA under solar simulated light. The class given is biochemical. The note with it: solar simulated light, AGE-BSA as photosensitizer. The method, then: Glycated Proteins as Photosensitizers of DNA Damage in Skin Photoaging. D-Penicillamine inhibits genotoxic consequences of AGE-photosensitization. Accumulation of AGEs on dermal elastin and collagen occurs during normal skin aging in humans. The hypothesis was tested that the intra- and extracellular accumulation of the complex yellow-brown AGE-chromophores contributes to skin aging and carcinogenesis induced by chronic exposure to sunlight. As a possible molecular mechanisms for a detrimental synergism of AGE-formation and exposure to sunlight, photosensitized DNA damage by AGEs was assessed in a simple in vitro system. Irradiation of covalently closed circular ΦX-174 DNA with increasing doses of solar simulated light (SSL) in the presence of AGE-BSA was used to detect photosensitized DNA nicking as a measure of DNA photodamage (panel A). […] Addition of several antioxidants modulated the photosensitization effect (panel C).

The subject of another test is CF-3 cells. Briefly: Protection of fibroblasts from alpha-dicarbonyl stress (cell count after 72 hour exposure). The class given is cell-based, human. The method, then: A continuous cell line of human epidermal keratinocytes (HaCat cells) and human dermal fibroblasts (CF-3 cells) were routinely cultured in 75 cm^2 flasks and split biweekly in DMEM containing 10% fetal bovine serum and kept in a humidified atmosphere containing 5% CO2 at 37° C. Human keratinocytes were split using 5% trypsin and human fibroblasts employed 1% trypsin. All experiments were carried out on 6 well dishes (Falcon USA), where keratinocytes were seeded at 2×10^4 cells/well and fibroblasts at 4×10^4 cells/well. Cells were left overnight to attach to the plate and the appropriate carbonyl scavenger was then added 15 minutes prior to the addition of the alpha-dicarbonyl stress compounds glyoxal or methylglyoxal. Following 72 hour exposure to the stress compound, cells were counted with a Coulter counter. the protective effects of the alpha-dicarbonyl scavengers were assessed by comparing the growth of untreated cells with cells exposed to alpha-carbonyl stress +/− test compound.

Another test relates to histone H1. As to the kind of experiment: Histone H1 crosslinking by 12% SDS-PAGE with silver staining. The conditions noted are these: 5 mM; histone H1, ADP-ribose reaction system. It counts as biochemical, calf. As for the experimental part: The following screening scheme is used (see Table 1): AGE-fluorescence is determined at the beginning and after five days of incubation. Test compounds that are inherently fluorescent (designated false negatives) were identified by the initial fluorescence measurement (See Table 1, NADH for example). Since these are compounds of uncertain activity, they are diverted directly to the second stage of the screen. Aminoguanidine, a known glycation inhibitory agent, was used as a positive control for suppression of the increase on AGE-fluorescence. After five days incubation and plate reading, fluorescence quenchers (designated false positives) are excluded by measuring the quenching activity of the test compound by addition of AGE modified protein having known fluorescence activity to one microtiter plate well containing test compound in the complete reaction mixture. For this, AGE-BSA is used as the AGE-type fluorescence standard. This AGE-BSA test excludes false positives compounds that function by fluorescence quenching. If fluorescence quenching occurs the test compound is excluded from further screening. […] The protein is visualized by silver staining of the gel. […] A compound that passes the first and second stage of the screen is considered a glycation inhibitor and is further evaluated for biological activity as described below. […]

For `CC(C)(S)[C@@H](N)C(=O)O` [D-Penicillamine], the “effect on AGE-BSA photosensitized DNA cleavage” value with ΦX-174 DNA is on record as “inhibited the photosensitization effect of AGE-BSA in a dose dependent relationship”. The “protection from alpha-dicarbonyl stress” value with CF-3 cells (FIG. 14) was “protection”. Moreover, the “protection from methylglyoxal induced alpha-dicarbonyl stress” value with CF-3 cells (FIG. 15) is “protection”. The “inhibition of histone H1 crosslinking” value with histone H1 is recorded as “inhibit histone H1 crosslinking”.
